The conditions of this series: Liquid, Closed cell (Static) method.

Structures are written as SMILES. Numbers after ± are expanded uncertainties.

Experimental findings from the NIST ThermoML archive (doi:10.1016/j.fluid.2019.06.020) are described below.

By vapor or sublimation pressure is commonly meant the pressure of vapour in equilibrium with the condensed phase.

Consider `C=CC(F)(F)F` [1,1,1-trifluoro-2-propene], for which the “vapor or sublimation pressure” value by setting is: (273.17 K) 268.8 ± 5 kPa; (278.17 K) 318.4 ± 5 kPa; (283.16 K) 373.6 ± 5.1 kPa; (288.16 K) 437.6 ± 5.1 kPa; (293.15 K) 510 ± 5.1 kPa; (298.15 K) 590.1 ± 5.1 kPa. For the same compound, the “vapor or sublimation pressure” value reads like this: (303.15 K) 678.2 ± 5.1 kPa; (308.15 K) 776.7 ± 5.2 kPa; (313.15 K) 883.6 ± 5.2 kPa; (318.15 K) 1001.8 ± 5.3 kPa; (323.14 K) 1130.4 ± 5.4 kPa; (328.14 K) 1274.9 ± 5.5 kPa. Besides, the “vapor or sublimation pressure” value by setting is: (333.14 K) 1431.6 ± 5.6 kPa; (338.14 K) 1600.5 ± 5.7 kPa; (343.14 K) 1785.7 ± 5.8 kPa; (348.13 K) 1986.4 ± 6 kPa; (353.13 K) 2203.1 ± 6.2 kPa.
Turning to `FCC(F)(F)F` [1,1,1,2-tetrafluoroethane], the “vapor or sublimation pressure” value is 294.3 ± 5 kPa (273.17 K); 351.2 ± 5.1 kPa (278.17 K); 415.4 ± 5.1 kPa (283.16 K); 488.2 ± 5.1 kPa (288.16 K); 570.6 ± 5.1 kPa (293.15 K); 664.8 ± 5.2 kPa (298.15 K). The “vapor or sublimation pressure” value (303.15 K) turned out to be 769.2 ± 5.2 kPa; the “vapor or sublimation pressure” value (308.15 K) came out at 886 ± 5.3 kPa; the “vapor or sublimation pressure” value (313.15 K) was 1017.7 ± 5.3 kPa; the “vapor or sublimation pressure” value (318.15 K) was 1158.1 ± 5.4 kPa; the “vapor or sublimation pressure” value (323.15 K) stood at 1317.4 ± 5.5 kPa; the “vapor or sublimation pressure” value (328.15 K) is on record as 1489.6 ± 5.6 kPa. Further, the “vapor or sublimation pressure” value by setting is: (333.15 K) 1679.7 ± 5.8 kPa; (338.14 K) 1889.1 ± 6 kPa; (343.14 K) 2118.1 ± 6.2 kPa; (348.13 K) 2361.2 ± 6.4 kPa; (353.13 K) 2634.6 ± 6.7 kPa.
